Entries after “also recorded” stand apart in the source; their conditions may differ.
Experiments:
[1] = system: MOG35-55-stimulated splenocytes; test: Cytokine and chemokine production by splenocytes from EAE mice (Luminex); format: in vivo, mouse; set-up: key to Peripheral Inflammatory Cytokines: IFNγ / Peripheral Inflammatory Cytokines: IL-lβ / Peripheral Inflammatory Cytokines: IL-2 / Peripheral Inflammatory Cytokines: IL-6 / Peripheral Inflammatory Cytokines: IL-17 / Peripheral Inflammatory Cytokines: TNFα / Peripheral Th2 & Anti-inflammatory Cytokines: IL-4 / Peripheral Th2 & Anti-inflammatory Cytokines: IL-5 / Peripheral Th2 & Anti-inflammatory Cytokines: IL-10 / Peripheral Th2 & Anti-inflammatory Cytokines: IL-13 / Peripheral Chemokines: CXCL1 / Peripheral Chemokines: CXCL10: ‘+’ indicate marker was significantly (p ≤ 0.05) increased in treatment group relative to vehicle; ‘−’ indicates marker was significantly (p ≤ 0.05) decreased in treatment group relative to vehicle; ○: ‘o’ indicate marker did not change relative to vehicle; settings: for Peripheral Chemokines: CXCL1 / Peripheral Chemokines: CXCL10 / Peripheral Inflammatory Cytokines: IFNγ / Peripheral Inflammatory Cytokines: IL-2 / Peripheral Inflammatory Cytokines: IL-6 / Peripheral Inflammatory Cytokines: IL-17 / Peripheral Inflammatory Cytokines: IL-lβ / Peripheral Inflammatory Cytokines: TNFα / Peripheral Th2 & Anti-inflammatory Cytokines: IL-4 / Peripheral Th2 & Anti-inflammatory Cytokines: IL-5 / Peripheral Th2 & Anti-inflammatory Cytokines: IL-10 / Peripheral Th2 & Anti-inflammatory Cytokines: IL-13: vs vehicle
Experimental: Splenocyte Isolation & Cytokine Analysis: On day 20-21 after induction of EAE, spleens were harvested prior to transcardial perfusion. Spleens were dissected from anesthetized mice and mechanically dissociated into a single cell suspension in cold RPMI 1640 supplemented with pyruvate, L-glutamine, and 10% fetal bovine serum (henceforth referred to as RPMI). Red blood cells were lysed by incubation with ACK buffer (VWR), washed, counted, and resuspended in RPMI for cytokine analysis. Splenocytes were then stimulated with 25 μg/ml MOG35-55 and supernatants were collected 48 hours later (Khalaj et al., 2013; Moore et al., 2013). Levels of the anti-inflammatory cytokines: IL-10, IL-13, IL-4 and IL-5; pro-inflammatory cytokines IFNγ, IL-17, IL-1β TNFα, IL-6 and IL-2; and chemokines: CXCL1, CXCL10 were determined by Cytokine Mouse Magnetic Panel for Luminex (Thermo Fisher Scientific; Waltham, Mass.) and run on the xMAP MAGPIX 100™ instrument (Luminex Corporation, Austin, Tx) according to manufacturer's instructions.
During MS and EAE, peripherally activated leukocytes secrete inflammatory cytokines and chemokines as they migrate into the CNS, where they contribute to demyelination and axon damage (Fletcher et al., 2010). To characterize the effects of IndCl analogues on the peripheral immune response, splenocytes were isolated from mice 21 days post-immunization and stimulated ex vivo with MOG35-55 peptide for cytokine and chemokine analysis using a magnetic bead-based 20-plex cytokine/chemokine detection assay. Cytokines related to inflammation, CD4+ T cell polarization, immune regulation, and chemokines associated with OL apoptosis and myelination that were measured in collected supernatants are presented below.

[2] = system: callosal axons; test: Callosal compound action potential (CAP) recordings in brain slices of EAE mice; format: in vivo, mouse; settings: vs vehicle; for N1 CAP amplitude / N2 CAP amplitude: therapeutic treatment (postEAE)
Experimental: Electrophysiology: To assess functional conductivity across the CC, electrophysiological recordings of compound action potentials (CAPs) were measured as previously described (Crawford et al., 2009; Crawford et al., 2010). Coronal brain slices were prepared from adult (3 to 4 month old) C57BL/6 female mice. Briefly, mice were deeply anesthetized under isoflurane and decapitated. The brain was removed and submerged in partially frozen “slushy” solution of slicing buffer containing (in mM): 87 NaCl, 75 sucrose 2.5 KCl, 0.5 CaCl2), 7 MgCl2, 1.25 NaH2PO4, 25 NaHCO3, 10 glucose, 1.3 ascorbic acid, 0.1 kynurenic acid, 2.0 pyruvate, and 3.5 MOPS, bubbled with 5% CO2+95% O2 (Lauderdale et al., 2015). Coronal slices (350 μm) were prepared using a Leica VT 1000S Vibratome (Bannockburn, Ill.) and subsequently incubated for 45 minutes at 35° C. in slicing buffer. Following incubation, slices were allowed to cool to room temperature for 15 minutes then transferred to ACSF […] containing (in mM): 125 NaCl, 2.5 KCl, 2.5 CaCl2), 1.3 MgCl2, 1.25 NaH2PO4, 26.0 NaHCO3, and 15 glucose, oxygenated with 5% CO2+95% O2. Slices were equilibrated in the standard ACSF for a minimum of 15-20 minutes prior to electrophysiological recordings. During electrophysiological recordings, slices were continuously perfused with oxygenated ACSF maintained at a flow rate of 1 mL/min. For recording CAPs, an Axon Digidata 1550 was used with a Multiclamp 700B Amplifier and PClamp 10.4 Software (Molecular Devices, Sunnyvale, Calif.). Continuous recordings for CC conduction experiments were low-pass filtered at 10 kHz and digitized at 200 kHz. All experiments were conducted at room temperature (24-26° C.). To stimulate the CC fiber tract, a concentric bipolar stimulating electrode (FHC Neural microTargeting Worldwide, Bowdoin, Me., USA) was placed approximately 1 mm away across from a recoding electrode (glass micropipette filled with ACSF) with a resistance of 1-3 MO. To elicit CAPs, an episodic stimulation protocol was created consisting of 8 consecutive sweeps, each 12 ms long, with a 5-sec delay between sweeps and an immediate stimulus (0.01 ms duration) after the start of each sweep (Crawford et al., 2009a). Stimulus intensity was adjusted manually using an ISO-Flex stimulator (A.M.P.I). Standardized input-output plots were generated in current clamp mode for each slice by averaging at least 4 consecutive sweeps together to […] the signal-to-noise ratio. […] Electrophysiology data were analyzed using Clampfit 10.4 software (Molecular Devices, Sunnyvale, Calif.) and OriginPro 2016 64 Bit (OriginLab Corporation)
Large white matter tracts, such as the CC, are especially vulnerable to demyelination and axonal damage in MS and EAE (Ozturk et al., 2010; Mangiardi et al., 2011). Compound action potential (CAP) recordings are a valuable technique for assessing demyelination and damage in these areas through their impact on functional conductivity (Crawford et al., 2009; Crawford et al., 2010; Moore et al., 2013).

[3] = Post (therapeutic, postEAE) treatment of EAE mice
[4] = Pre (prophylactic, preEAE) E2 treatment of EAE mice
[5] = prophylactic E2 (preEAE), day 21, vs vehicle
[6] = therapeutic treatment (postEAE), day 21, vs vehicle

Compound	Peripheral Chemokines: CXCL1 [1, 3]	Peripheral Chemokines: CXCL10 [1, 3]	Peripheral Inflammatory Cytokines: IFNγ [1, 3]	Peripheral Inflammatory Cytokines: IL-2 [1, 3]	Peripheral Inflammatory Cytokines: IL-6 [1, 3]	Peripheral Inflammatory Cytokines: IL-17 [1, 3]	Peripheral Inflammatory Cytokines: IL-lβ [1, 3]	Peripheral Inflammatory Cytokines: TNFα [1, 3]	Peripheral Th2 & Anti-inflammatory Cytokines: IL-4 [1, 3]	Peripheral Th2 & Anti-inflammatory Cytokines: IL-5 [1, 3]	Peripheral Th2 & Anti-inflammatory Cytokines: IL-10 [1, 3]	Peripheral Th2 & Anti-inflammatory Cytokines: IL-13 [1, 3]	IFNγ production by splenocytes [1, 6]	Electrophysiology: N1 amplitude [2, 3]	N1 CAP amplitude [2]	IL-6 production by splenocytes [1, 6]	IL-13 production by splenocytes [1, 6]	also measured
C[C@]12CC[C@@H]3c4ccc(O)cc4CC[C@H]3[C@@H]1CC[C@@H]2O [E2, 170 estradiol]	+	−	−	○	−	−	○	○	○	○	○	○						Peripheral Chemokines: CXCL1 [1, 4]: +; Peripheral Chemokines: CXCL10 [1, 4]: −; Peripheral Inflammatory Cytokines: IFNγ [1, 4]: −; Peripheral Inflammatory Cytokines: IL-2 [1, 4]: −; Peripheral Inflammatory Cytokines: IL-6 [1, 4]: −; Peripheral Inflammatory Cytokines: IL-17 [1, 4]: −; Peripheral Inflammatory Cytokines: IL-lβ [1, 4]: ○; Peripheral Inflammatory Cytokines: TNFα [1, 4]: ○; Peripheral Th2 & Anti-inflammatory Cytokines: IL-4 [1, 4]: ○; Peripheral Th2 & Anti-inflammatory Cytokines: IL-5 [1, 4]: ○; Peripheral Th2 & Anti-inflammatory Cytokines: IL-10 [1, 4]: ○; Peripheral Th2 & Anti-inflammatory Cytokines: IL-13 [1, 4]: ○; IL-1β production by splenocytes [1, 5]: no effect; TNFα production by splenocytes [1, 5]: no effect
Oc1ccc(-n2nc3ccc(O)cc3c2Cl)cc1 [IndCl, chloroindazole]	+	−	−	○	○	○	+	○	○	○	○	○	significantly decreased	+	significant improvement; also recorded: improved			CXCL1 production by splenocytes [1, 6]: increased; CXCL10 production by splenocytes [1, 6]: decreased; IL-1β production by splenocytes [1, 6]: increased; Th2 (IL-4, IL-5, IL-13) and IL-10 cytokine production by splenocytes [1, 6]: no effect
Oc1ccc(-n2nc3ccc(O)cc3c2Cl)c(Cl)c1 [IndCl-o-Cl, 3-chloro-2-(2-chloro-4-hydroxyphenyl)-2H-indazol-5-ol]	+	−	−	○	−	−	○	○	○	○	○	−	significantly decreased	+	improved	significantly decreased	attenuated	IFNγ production by splenocytes ([1]; therapeutic treatment (postEAE), day 21, vs vehicle, listed as o-Cl): decreased; Electrophysiology: N2 amplitude [2, 3]: +; N2 CAP amplitude [2]: increased; N2 CAP amplitude ([2]; listed as Ind-o-Cl): small but significant increase
Cc1cc(O)ccc1-n1nc2ccc(O)cc2c1Cl [IndCl-o-Me, 3-chloro-2-(4-hydroxy-2-methylphenyl)-2H-indazol-5-ol]	+	−	−	○	−	−	○	○	○	○	○	−	significantly decreasing	+	improved	significantly decreasing	attenuated	IL-17 production by splenocytes [1, 6]: significantly decreasing; also recorded: reducing; IFNγ production by splenocytes ([1]; therapeutic treatment (postEAE), day 21, vs vehicle, listed as o-Me): decreased

— US11673866B2, “Estrogen receptor beta ligands for the prevention and treatment of multiple sclerosis (MS) and other demyelinating, inflammatory and neurodegenerative diseases” (The Board of Trustees of the University of Illinois, priority 2018, dated 2023)
